This is an account of results in EP0614662A1, “Use of (2E,4E,6E,10E)-3,7,11,15-tetramethyl-2,4,6,10,14-hexadecapentaenoic acid for the treatment of leukaemia” (Eisai Co., Ltd., priority 1993, dated 1994).

Bounds are passed on as bounds.

One series relates to mice. The settings on record: cited from earlier work.
For another series, the system named is APL. To be noted: clinical data, Blood, 72, 567 - 572 (1988); cited from earlier work.
The next series has as its system HL-60. As to the kind of experiment: Cytotoxicity on HL-60 (viable cell count, Trypan Blue). To be noted: human, 5 days. Type of series: cell-based. How it is done:
After the completion of the incubation, the total cell count was calculated with a Burker-Turk calculation board and the viable cell count was calculated by regarding the cells stained with Trypan Blue as the dead ones. Thus ID₅₀ and LD₅₀ were determined. Further, a cytospin slide was prepared and the morphology of the cells was observed by the May-Giemsa staining method.

Series [1] can be described thus: Acute toxicity test, single dose, ICR mice. The settings on record: in vivo, Mouse (ICR). On the procedure: (§1) By using 5 female and 5 male SD rats and ICR mice aged 7 to 8 weeks, the toxicities of the compound of the present invention were tested through oral, intramuscular, subcutaneous and intraperitoneal administrations each in a single dose (medium: 5% gum arabic).

A further series has as its system cells of APL patients. As to the kind of experiment: Ability to induce differentiation of cells of APL patients. In kind it is cell-based, human. On the procedure:
To illustrate the usefulness of the compound of the present invention as a differentiation inducer, a test example on the effects of the compound of the present invention on leukemic cells of APL patients and various cultured human leukemic cell lites will be given. The backgrounds of the patients providing the bloods employed in the test are as follows.
The cells samples from APL patients were adjusted to an initial cell count of 1 × 10⁶ cells/ml and incubated in the above-mentioned IMDM medium containing 10% of fetal calf serum for 5 days under the addition of the compound (I) or ATRA (10⁻⁶ to 10⁻⁸ mol/1), followed by the same evaluation as the one effected in the case of HL-60. Further, the ratio of mature cells to all the cells was determined in accordance with the following formula and taken as an indication for the comparison of the ability to induce differentiation: [formula]

The test system of another series is mouse papilloma. The settings on record: cited from earlier work.
Series [2] is described as follows: Acute toxicity test, single dose, SD rats. To be noted: in vivo, Rat (SD). How it is done:
as §1

The mark [3] stands for this setting: female, ♀, oral, medium 5% gum arabic, read-out: LD₅₀ Oral.
The mark [4] stands for this setting: female, ip, ♀, intraperitoneal, read-out: LD₅₀ Intraperitoneal.
Where [5] appears, read: female, sc, ♀, subcutaneous, read-out: LD₅₀ Subcutaneous.
Setting [6] is: male, ♂, oral, medium 5% gum arabic, read-out: LD₅₀ Oral.
Setting [7] is: male, im, ♂, intramuscular, read-out: LD₅₀ Intramuscular.
[8] abbreviates: male, ip, ♂, intraperitoneal, read-out: LD₅₀ Intraperitoneal.
Setting [9] is: male, sc, ♂, subcutaneous, read-out: LD₅₀ Subcutaneous.

For the molecule `CC1=C(/C=C/C(C)=C/C=C/C(C)=C/C(=O)O)C(C)(C)CCC1` [ATRA, all-trans-retinoic acid, reference compound], the “hypervitaminosis A (depilation, reduction in body weight)” value with mice is “suffered from hypervitaminosis A including depilation and reduction in body weight”. For the same molecule, the “healing of APL patients” value in the series on APL was “about 100%”. Further, the “ratio of the dead cells stained with Trypan Blue” value in the series with HL-60 is listed as not above 10%.

Turning to `CC(C)=CCC/C(C)=C/CC/C(C)=C/C=C/C(C)=C/C(=O)O` [compound (I), (2E,4E,6E,10E)-3,7,11,15-tetramethyl-2,4,6,10,14-hexadecapentaenoic acid], the “hypervitaminosis A (depilation, reduction in body weight)” value in the series with mice is “did not suffer from such a symptom”. For the same molecule, the LD50 in series [1] (setting [3]) is more than 6250 mg/kg; in series [1] (female, im, ♀, intramuscular, read-out: LD₅₀ Intramuscular) it was more than 2000 mg/kg; in series [1] (setting [4]), 1.1 mg/kg; in series [1] (setting [5]) it was more than 4 mg/kg; in series [1] (setting [6]) it was more than 6250 mg/kg; in series [1] (setting [7]), 2 mg/kg. In addition, the LD50 was 970 mg/kg in series [1] (setting [8]); more than 4000 mg/kg in series [1] (setting [9]); 2850 mg/kg in series [2] (setting [3]); 680 mg/kg in series [2] (setting [4]); 2800 mg/kg in series [2] (setting [5]); 2400 mg/kg in series [2] (setting [6]). Further, the LD50 in series [2] (setting [7]) was found to be 830 mg/kg; in series [2] (setting [8]) it was 731 mg/kg; in series [2] (setting [9]) it was 2500 mg/kg. In addition, in the series with HL-60, the “ratio of the dead cells stained with Trypan Blue” value was not above 10%. In the series on cells of APL patients (5 days incubation, 10⁻⁶ to 10⁻⁸ mol/l), the “effect of inducing differentiation” value is “exhibited an effect of inducing differentiation similar to ATRA”. In the series on cells of APL patients (PML/RAR-α (+)), the “efficacy on cells having a fused gene PML-RAR-α” value is given as “effective in all of the cases”. Further, the antitumor effect result in the series with mouse papilloma is reported as “exerts an antitumor effect”.
